The text below walks through data of ChEMBL document CHEMBL5465560, “Selectivity Literature for EUbOPEN Chemogenomic Library” (2024).

Molecules are shown by their SMILES. Where only a bound is given, the exact number is not on record here.

Test [1] deals with Cyclin-dependent kinase 5/CDK5 activator 1 (Homo sapiens) (UniProt Q00535+Q15078). Put plainly: Selectivity interaction (ProQinase) EUB0000171b CDK5. Type of test: protein-complex assay. The following applies: at 5 µM.
Test [2] addresses Non-receptor tyrosine-protein kinase TYK2 (Homo sapiens, UniProt P29597). The note with it: at 10 µM.
The target in test [3] is Calcium/calmodulin-dependent protein kinase kinase 1 (Homo sapiens) (UniProt Q8N5S9). Put plainly: Selectivity interaction (KinomeScan (DiscoverX)) EUB0001079a CAMKK1. The note with it: at 1 µM.
Calcium/calmodulin-dependent protein kinase kinase 1 (Homo sapiens), sequence (Q8N5S9 whole entry, looked up): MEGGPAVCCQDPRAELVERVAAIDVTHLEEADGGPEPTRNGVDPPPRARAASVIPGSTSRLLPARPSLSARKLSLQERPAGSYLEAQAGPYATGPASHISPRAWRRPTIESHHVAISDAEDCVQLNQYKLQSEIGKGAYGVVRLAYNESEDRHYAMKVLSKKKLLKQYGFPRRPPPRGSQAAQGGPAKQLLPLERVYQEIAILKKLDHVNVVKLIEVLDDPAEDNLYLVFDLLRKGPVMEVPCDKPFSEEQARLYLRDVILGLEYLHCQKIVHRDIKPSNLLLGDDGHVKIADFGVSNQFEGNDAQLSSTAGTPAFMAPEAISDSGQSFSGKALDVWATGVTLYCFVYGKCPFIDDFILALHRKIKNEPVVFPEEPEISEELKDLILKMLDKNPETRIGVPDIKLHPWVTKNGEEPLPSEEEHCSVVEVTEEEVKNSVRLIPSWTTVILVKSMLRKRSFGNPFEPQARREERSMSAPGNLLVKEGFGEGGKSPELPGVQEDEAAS
Test [4] addresses Histone-lysine N-methyltransferase SUV39H2 (Homo sapiens) (UniProt Q9H5I1). Briefly: Selectivity interaction (Transferase panel (protein, RNA, and DNA methyltransferases. and EP300 (acetyltransferase))) EUB0000270b SUV39H2.
In test [5] the target is T1, Uncharacterized serine/threonine-protein kinase SBK3 (Homo sapiens) (UniProt P0C264).
T1 sequence (whole entry): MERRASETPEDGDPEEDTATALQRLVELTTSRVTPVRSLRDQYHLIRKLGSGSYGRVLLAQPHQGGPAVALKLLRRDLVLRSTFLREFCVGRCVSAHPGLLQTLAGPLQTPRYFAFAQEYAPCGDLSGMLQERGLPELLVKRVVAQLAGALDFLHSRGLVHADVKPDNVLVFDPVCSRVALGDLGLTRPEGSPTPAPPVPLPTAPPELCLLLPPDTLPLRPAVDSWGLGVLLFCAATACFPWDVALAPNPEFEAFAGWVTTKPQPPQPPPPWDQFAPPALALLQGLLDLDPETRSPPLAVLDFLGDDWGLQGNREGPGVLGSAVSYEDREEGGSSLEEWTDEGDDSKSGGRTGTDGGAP
Put plainly: Selectivity interaction (KinomeScan (DiscoverX)) EUB0000045b SBK3.

In test [6] the target is Cyclin-dependent kinase 3 (Homo sapiens) (UniProt Q00526). Put plainly: Selectivity interaction (KinomeScan (DiscoverX)) EUB0000666a CDK3. The following applies: at 10 µM.
Cyclin-dependent kinase 3 (Homo sapiens), sequence (Q00526 whole entry, looked up): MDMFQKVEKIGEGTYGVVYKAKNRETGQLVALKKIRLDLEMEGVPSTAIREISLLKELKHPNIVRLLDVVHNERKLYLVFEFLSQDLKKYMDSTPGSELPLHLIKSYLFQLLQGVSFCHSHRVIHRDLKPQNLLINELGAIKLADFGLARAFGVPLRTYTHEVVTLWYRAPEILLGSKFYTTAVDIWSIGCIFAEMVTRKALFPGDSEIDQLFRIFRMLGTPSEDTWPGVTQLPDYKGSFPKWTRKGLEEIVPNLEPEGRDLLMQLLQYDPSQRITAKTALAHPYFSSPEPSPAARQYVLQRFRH
Test [7] has as its target T2, Mitogen-activated protein kinase kinase kinase kinase 2 (Homo sapiens) (UniProt Q12851).
T2 sequence (whole entry): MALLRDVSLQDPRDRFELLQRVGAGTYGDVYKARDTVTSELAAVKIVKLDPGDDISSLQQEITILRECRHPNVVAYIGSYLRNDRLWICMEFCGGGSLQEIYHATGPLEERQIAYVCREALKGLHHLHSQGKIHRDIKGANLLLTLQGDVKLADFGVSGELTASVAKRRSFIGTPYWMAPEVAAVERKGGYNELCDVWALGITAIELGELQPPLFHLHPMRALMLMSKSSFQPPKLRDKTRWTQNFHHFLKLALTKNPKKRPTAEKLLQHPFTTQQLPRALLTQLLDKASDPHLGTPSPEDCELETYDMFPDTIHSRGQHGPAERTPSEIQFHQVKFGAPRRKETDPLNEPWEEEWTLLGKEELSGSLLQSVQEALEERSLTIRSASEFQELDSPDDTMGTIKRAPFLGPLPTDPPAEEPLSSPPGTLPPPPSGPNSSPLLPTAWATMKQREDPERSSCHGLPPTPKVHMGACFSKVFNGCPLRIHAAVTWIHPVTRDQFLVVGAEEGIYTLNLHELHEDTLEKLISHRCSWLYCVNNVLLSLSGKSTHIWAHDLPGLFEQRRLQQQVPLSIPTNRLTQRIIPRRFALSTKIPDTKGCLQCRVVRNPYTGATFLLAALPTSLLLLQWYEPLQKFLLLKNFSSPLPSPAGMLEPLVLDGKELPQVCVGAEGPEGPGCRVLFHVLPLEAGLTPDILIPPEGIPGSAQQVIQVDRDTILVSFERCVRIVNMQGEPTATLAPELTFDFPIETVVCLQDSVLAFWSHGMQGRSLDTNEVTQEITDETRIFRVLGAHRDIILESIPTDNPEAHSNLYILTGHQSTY
Briefly: Selectivity interaction (SelectScreen profiling (Invitrogen)) EUB0000607a MAP4K2. The note with it: at 2 µM.

Test [8] has as its target Mitogen-activated protein kinase 14 (Homo sapiens, UniProt Q16539). Put plainly: Selectivity interaction (KinomeScan (DiscoverX)) EUB0000607a MAPK14. The note with it: at 10 µM.
Test [9] has as its target T3, Serine/threonine-protein kinase D3 (Homo sapiens) (UniProt O94806).
T3 sequence (whole entry): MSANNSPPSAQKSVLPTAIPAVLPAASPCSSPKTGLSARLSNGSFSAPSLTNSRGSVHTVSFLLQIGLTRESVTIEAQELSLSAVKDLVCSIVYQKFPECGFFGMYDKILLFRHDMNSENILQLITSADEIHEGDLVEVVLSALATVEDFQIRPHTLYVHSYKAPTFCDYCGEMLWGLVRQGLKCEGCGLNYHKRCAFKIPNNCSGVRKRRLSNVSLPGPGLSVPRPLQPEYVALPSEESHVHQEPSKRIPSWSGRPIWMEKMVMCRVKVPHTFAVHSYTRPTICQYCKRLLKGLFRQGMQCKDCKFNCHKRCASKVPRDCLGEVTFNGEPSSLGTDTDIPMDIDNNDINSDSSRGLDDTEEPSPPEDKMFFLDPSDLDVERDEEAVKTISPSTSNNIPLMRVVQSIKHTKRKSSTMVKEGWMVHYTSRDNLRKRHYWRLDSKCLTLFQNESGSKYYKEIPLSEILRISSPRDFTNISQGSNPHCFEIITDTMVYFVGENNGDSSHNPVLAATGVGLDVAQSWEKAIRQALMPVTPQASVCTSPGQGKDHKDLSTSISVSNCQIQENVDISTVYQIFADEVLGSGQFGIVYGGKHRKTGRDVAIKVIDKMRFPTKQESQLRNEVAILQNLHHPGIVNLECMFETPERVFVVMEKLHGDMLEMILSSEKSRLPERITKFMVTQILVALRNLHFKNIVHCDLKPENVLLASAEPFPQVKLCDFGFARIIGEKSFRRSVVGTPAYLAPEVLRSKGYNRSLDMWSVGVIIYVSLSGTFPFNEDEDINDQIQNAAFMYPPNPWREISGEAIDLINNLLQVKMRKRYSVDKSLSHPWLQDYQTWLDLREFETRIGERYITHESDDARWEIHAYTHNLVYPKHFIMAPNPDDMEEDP
Put plainly: Selectivity interaction (Kinase panel (Invitrogen)) EUB0000639a PRKD3. The note with it: at 200 nM.

Histone-lysine N-methyltransferase SUV39H2 (Homo sapiens), sequence (Q9H5I1 whole entry): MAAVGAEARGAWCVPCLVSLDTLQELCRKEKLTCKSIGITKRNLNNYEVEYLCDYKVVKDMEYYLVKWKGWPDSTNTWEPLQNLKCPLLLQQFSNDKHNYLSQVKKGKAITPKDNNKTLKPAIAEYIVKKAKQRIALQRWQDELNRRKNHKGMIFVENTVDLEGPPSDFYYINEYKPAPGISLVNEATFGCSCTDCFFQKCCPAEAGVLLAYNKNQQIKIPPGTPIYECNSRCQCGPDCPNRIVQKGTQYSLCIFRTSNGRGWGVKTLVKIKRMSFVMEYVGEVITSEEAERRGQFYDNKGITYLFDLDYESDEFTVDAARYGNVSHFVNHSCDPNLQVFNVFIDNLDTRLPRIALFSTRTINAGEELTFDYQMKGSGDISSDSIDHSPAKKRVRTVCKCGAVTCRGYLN
Non-receptor tyrosine-protein kinase TYK2, sequence (P29597 whole entry): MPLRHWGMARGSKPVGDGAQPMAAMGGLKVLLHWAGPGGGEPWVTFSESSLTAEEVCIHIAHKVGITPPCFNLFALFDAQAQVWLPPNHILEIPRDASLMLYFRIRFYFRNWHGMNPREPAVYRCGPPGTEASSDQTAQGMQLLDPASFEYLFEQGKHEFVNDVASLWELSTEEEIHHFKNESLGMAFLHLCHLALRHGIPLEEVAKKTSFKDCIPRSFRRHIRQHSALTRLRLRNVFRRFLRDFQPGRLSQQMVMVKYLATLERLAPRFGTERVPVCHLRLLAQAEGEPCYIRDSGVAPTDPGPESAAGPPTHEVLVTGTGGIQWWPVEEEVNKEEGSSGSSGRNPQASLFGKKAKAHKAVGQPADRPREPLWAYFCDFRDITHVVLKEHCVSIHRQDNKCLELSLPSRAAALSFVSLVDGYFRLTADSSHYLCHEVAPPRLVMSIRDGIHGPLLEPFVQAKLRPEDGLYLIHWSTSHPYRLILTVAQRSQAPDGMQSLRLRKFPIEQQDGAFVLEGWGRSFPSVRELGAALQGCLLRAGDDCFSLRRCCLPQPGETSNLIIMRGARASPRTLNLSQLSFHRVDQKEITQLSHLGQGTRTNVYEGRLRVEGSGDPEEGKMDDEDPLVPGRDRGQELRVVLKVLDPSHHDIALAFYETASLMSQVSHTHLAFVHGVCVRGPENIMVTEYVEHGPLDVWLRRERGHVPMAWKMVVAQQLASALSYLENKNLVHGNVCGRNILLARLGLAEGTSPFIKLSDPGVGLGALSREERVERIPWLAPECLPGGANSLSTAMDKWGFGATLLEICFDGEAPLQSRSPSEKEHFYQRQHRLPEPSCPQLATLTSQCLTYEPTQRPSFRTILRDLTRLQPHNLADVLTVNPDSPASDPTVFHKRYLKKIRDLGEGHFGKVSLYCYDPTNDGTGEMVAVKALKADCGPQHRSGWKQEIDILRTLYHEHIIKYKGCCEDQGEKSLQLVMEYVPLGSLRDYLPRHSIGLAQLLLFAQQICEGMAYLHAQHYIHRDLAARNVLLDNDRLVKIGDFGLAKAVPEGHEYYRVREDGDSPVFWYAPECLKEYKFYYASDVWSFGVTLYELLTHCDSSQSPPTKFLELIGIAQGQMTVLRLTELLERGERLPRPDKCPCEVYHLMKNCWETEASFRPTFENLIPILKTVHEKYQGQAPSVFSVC
Mitogen-activated protein kinase 14, sequence (Q16539 whole entry): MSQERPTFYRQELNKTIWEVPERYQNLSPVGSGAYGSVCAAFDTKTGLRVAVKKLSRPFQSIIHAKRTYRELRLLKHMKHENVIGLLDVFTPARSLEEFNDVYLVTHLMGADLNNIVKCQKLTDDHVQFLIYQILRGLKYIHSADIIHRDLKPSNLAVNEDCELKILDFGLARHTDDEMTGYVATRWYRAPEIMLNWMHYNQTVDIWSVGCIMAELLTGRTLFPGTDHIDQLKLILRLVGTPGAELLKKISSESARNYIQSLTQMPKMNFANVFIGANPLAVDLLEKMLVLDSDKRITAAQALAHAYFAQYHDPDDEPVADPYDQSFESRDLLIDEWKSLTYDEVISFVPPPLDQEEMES
Cyclin-dependent kinase 5/CDK5 activator 1 (Homo sapiens), sequence (Q00535 whole entry): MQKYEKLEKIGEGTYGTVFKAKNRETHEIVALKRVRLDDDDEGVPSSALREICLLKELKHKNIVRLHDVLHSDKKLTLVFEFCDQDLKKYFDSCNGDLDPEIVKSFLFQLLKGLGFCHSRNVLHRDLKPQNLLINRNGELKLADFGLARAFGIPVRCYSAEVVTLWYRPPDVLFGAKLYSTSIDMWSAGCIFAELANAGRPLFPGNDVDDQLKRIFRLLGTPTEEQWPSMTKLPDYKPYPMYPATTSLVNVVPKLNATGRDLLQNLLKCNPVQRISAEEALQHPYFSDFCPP
Cyclin-dependent kinase 5/CDK5 activator 1 (Homo sapiens), sequence (Q15078 99-307 partner limits assumed): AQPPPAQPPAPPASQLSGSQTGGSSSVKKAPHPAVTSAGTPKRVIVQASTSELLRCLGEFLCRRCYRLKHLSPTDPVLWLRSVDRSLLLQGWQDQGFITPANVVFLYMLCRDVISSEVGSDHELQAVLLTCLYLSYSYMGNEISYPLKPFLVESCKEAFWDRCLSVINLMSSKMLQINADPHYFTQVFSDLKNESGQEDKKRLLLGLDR

As to `C=CC(=O)Nc1cccc(C(=O)Nc2ccc(Nc3cc(-c4[nH]c(SC)nc4C)ccn3)cc2)c1`, the % of control in test [1] worked out at 36%.

The compound `CCN(CC)CCCCNc1ncc2cc(-c3cc(OC)cc(OC)c3)c(NC(=O)NC(C)(C)C)nc2n1` had a % of control in test [2] of 100%.

As to `Nc1cnc(N2CCc3cc(S(=O)(=O)Nc4c(F)cc(Cl)cc4F)cc(N4CCCC4=O)c32)nc1` [TP-020n], in test [3], the % of control was determined as 100%.

As for `Cc1cc(CN)cc(C)c1-c1ncn(C)c1-c1cncn1C`, the % activity is > 90% in [4] (at 1 µM) and > 80% in test [4] (at 10 µM).

For `C=CC(=O)Nc1cc(-n2c(=O)ccc3cnc4ccc(-c5ccc(NS(C)(=O)=O)cc5)cc4c32)ccc1C`, the % of control in [5] (at 1 µM) and in [5] (at 10 µM) was 100% each time.

Take `O=C(NOC[C@H](O)CO)c1ccc(F)c(F)c1Nc1ccc(I)cc1F`: the % of control in [6] is 69%.

In the case of `CNC(=O)Nc1ccc(-c2nc(N3CC4CCC(C3)O4)c3cnn(C4CCC5(CC4)OCCO5)c3n2)cc1`, the % of inhibition in test [7] is 3%. Also, the % of control in test [8] is 100%.

In test [9], `CC[C@@H]1[C@H](F)C(=O)N[C@@H]1COc1nccc2cc(C(N)=O)c(OC)cc12` [ZIMLOVISERTIB] registered a % of inhibition of 10.2%.
